This assay has as its target T1, PLK1 (Homo sapiens, UniProt P53350).
T1 construct: purchased Thermo Fisher Scientific (Life Technologies) SelectScreen
Nature of the assay: SelectScreen Z'LYTE. The assay is classed as biochemical. The method, boiled down: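 Percent values come from Thermo SelectScreen profiling of NU5455, combining activity and binding assays. CSF1R was run in Z'LYTE format at Km app ATP, and CAMK1 in Adapta format with ATP listed at 10.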

Results on one compound are retold here after article PMC6934184, “Selective DNA-PKcs inhibition extends the therapeutic index of localized radiotherapy and chemotherapy” (The Journal of Clinical Investigation, 2019).

As a reminder, the inhibition is how much of the control response was suppressed. Read a high inhibition as a response far below the control.

T1 sequence (P53350 whole entry): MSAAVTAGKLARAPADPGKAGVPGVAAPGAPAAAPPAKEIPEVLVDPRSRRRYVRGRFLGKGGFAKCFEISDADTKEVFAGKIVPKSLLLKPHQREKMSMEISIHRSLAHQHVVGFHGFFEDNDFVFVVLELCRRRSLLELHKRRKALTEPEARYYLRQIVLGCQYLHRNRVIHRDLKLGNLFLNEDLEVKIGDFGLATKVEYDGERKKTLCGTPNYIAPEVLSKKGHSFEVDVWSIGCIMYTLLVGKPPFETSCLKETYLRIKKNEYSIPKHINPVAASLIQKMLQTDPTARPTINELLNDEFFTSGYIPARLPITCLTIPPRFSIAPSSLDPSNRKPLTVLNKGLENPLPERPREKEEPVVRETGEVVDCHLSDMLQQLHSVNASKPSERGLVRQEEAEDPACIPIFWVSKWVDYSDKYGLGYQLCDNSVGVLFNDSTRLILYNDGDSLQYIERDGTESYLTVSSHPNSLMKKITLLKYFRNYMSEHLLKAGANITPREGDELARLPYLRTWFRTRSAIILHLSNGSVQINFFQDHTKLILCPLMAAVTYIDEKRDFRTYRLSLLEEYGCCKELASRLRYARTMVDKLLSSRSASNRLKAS

In turn, `CN(C(=O)CN1CCOCC1)c1ccc2sc3c(-c4cccc5c(=O)cc(N6CC7CCC(C6)O7)oc45)cccc3c2c1` [NU5455] had an inhibition at 1 µM of 9.2%.
